{"source": "paper PMC10336670", "about": "(Saudi Pharmaceutical Journal : SPJ, 2023)", "data": [{"molecular_target": "urease enzyme (Canavalia ensiformis, UniProt P07374)", "sequence (P07374 whole entry, looked up)": "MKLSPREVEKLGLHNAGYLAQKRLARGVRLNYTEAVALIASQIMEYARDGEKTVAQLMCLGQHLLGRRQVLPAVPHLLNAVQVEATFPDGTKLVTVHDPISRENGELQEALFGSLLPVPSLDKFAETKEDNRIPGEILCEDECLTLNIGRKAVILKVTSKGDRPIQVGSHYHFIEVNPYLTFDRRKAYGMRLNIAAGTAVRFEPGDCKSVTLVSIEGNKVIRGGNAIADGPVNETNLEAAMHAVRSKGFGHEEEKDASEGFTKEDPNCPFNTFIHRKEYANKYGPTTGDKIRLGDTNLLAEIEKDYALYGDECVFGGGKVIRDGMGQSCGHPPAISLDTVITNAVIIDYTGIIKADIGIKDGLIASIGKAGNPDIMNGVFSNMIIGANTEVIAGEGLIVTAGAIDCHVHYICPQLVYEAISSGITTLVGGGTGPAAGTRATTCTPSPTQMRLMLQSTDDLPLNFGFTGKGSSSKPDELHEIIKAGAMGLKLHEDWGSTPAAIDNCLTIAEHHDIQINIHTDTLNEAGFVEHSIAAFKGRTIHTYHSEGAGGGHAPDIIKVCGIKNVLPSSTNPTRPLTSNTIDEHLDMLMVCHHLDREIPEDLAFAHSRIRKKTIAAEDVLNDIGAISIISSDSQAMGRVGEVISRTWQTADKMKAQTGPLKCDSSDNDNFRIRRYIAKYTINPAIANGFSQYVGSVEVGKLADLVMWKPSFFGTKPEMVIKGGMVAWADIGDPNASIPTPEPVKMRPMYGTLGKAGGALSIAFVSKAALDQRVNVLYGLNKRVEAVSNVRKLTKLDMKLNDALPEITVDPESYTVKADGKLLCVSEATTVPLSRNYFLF", "format": "biochemical", "values": [{"compound": "CN(C)c1ccc(-c2coc(N/N=C\\c3cnc4ccc(F)cn34)n2)cc1", "note": "[4 l, (Z)-4-(2-(2-((6-fluoroimidazo[1,2-a]pyridin-3-yl)methylene)hydrazineyl)oxazol-4-yl)-N,N-dimethylaniline]", "potency as urease inhibitor compared to the standard drug thiourea": "three-fold least potency"}, {"compound": "Fc1ccc2ncc(/C=N\\Nc3nc(-c4ccc(-c5ccccc5)cc4)co3)n2c1", "note": "[4c, (Z)-4-([1,1'-biphenyl]-4-yl)-2-(2-((6-fluoroimidazo[1,2-a]pyridin-3-yl)methylene)hydrazineyl)oxazole]", "potency as urease inhibitor compared to the standard drug thiourea": "three-fold least potent"}, {"compound": "Cc1ccc(-c2ccc(-c3coc(N/N=C\\c4cnc5ccc(F)cn45)n3)cc2)cc1", "note": "[4f, (Z)-2-(2-((6-fluoroimidazo[1,2-a]pyridin-3-yl)methylene)hydrazineyl)-4-(4'-methyl-[1,1'-biphenyl]-4-yl)oxazole]", "potency as urease inhibitor compared to the standard drug thiourea": "three-fold least potent"}, {"compound": "Cc1ccccc1-c1coc(N/N=C\\c2cnc3ccc(F)cn23)n1", "note": "[4p, (Z)-2-(2-((6-fluoroimidazo[1,2-a]pyridin-3-yl)methylene)hydrazineyl)-4-(o-tolyl)oxazole]", "potency as urease inhibitor compared to the standard drug thiourea": "three-fold least potency"}]}]}
